Key:
[1] = Water solubility of 5-HTP free base; assay type: physicochemical; details: free base form
Procedure: (§1) 5-HTP dosing: The free base form of 5-HTP was used (5-HTP has a water solubility of >10 mg/mL).

[2] = co-administration of 5-HTP and a peripheral decarboxylase inhibitor, in some cases; cited from earlier work
[3] = Release rate calculation Rinput=(Css×Vd×kel)/F, Scenario 1 (5-HTP without peripheral decarboxylase inhibitor); set-up: species or system human
Excerpt: As calculated above, the relative upper GI tract:colon bioavailability was 20% (corresponding to an absolute colonic bioavailability of 4%). Based on the above, according to general teachings in the field of sustained-release drug delivery (Sutton S C. The use of gastrointestinal intubation studies for controlled release development. Br J Clin Pharmacol. 2009 September; 68[3]: 342-54) it is concluded that gastroretentive technologies are needed in order to achieve a desirable extended release profile of 5-HTP together with a desirable sustained and therapeutically active 5-HTP plasma level profile. Further, the determination of the oral bioavailability (Fpo) enables computation of the delivery rate of 5-HTP needed from the dosage form to achieve a given plasma level of 5-HTP at steady state. Moreover, computation of the resultant plasma levels of 5-HTP can be done for embodiments where a peripheral decarboxylase inhibitor (with different levels of effects on 5-HTP bioavailability and elimination half-life) is included in the dosage form.
The desired release rate profile was calculated as follows, for a dosage form disclosed in the present invention when administering 5-HTP without a peripheral decarboxylase inhibitor:
Substituting, we get Rinput=˜25 mg/hr, to achieve average steady-state plasma concentrations of 5-HTP of 1 mg/L (1000 ng/ml).

[4] = mice; cited from earlier work
[5] = Absolute and regional intestinal bioavailability of 5-HTP in humans (oral, colonic, intravenous dosing; plasma LC-MS); assay type: in vivo; details: both sexes, other: colonic (by colonoscopy), human, colonic 200 mg vs IV 50 mg, read-out: absolute bioavailability (F), colonic dosing
Procedure: Determination of absolute and regional intestinal bioavailability of 5-HTP in humans.
as §1
Colonic: 5-HTP free base saline solution 200 mg.
Intravenous: 5-HTP free base saline solution 50 mg.
Oral/Upper GI: Two 5-HTP gelatin tablets of 100 mg 5-HTP free base (200 mg total dose).
Subjects: Healthy male and female volunteers aged 18 to 65 years with a body mass index (BMI) of 19 to 28 were eligible for the study. Subjects were admitted to the investigational medical unit (IMU) 2 h before 5-HTP administration and remained at the IMU for 24 h following, for blood sampling and safety assessment. […]
Plasma samples analysis: Plasma samples were stored at −80° C. until analysis. 5-HTP and the metabolite 5-hydroxyindole-acetic-acid (5-HIAA) were quantified by liquid chromatography with mass-spectrometry detection.
Data analysis: The PK data were analyzed using noncompartmental (NCA) and compartmental (mixed effects) mathematical modelling approaches, to calculate area 5-HTP plasma under the curve (AUC) for each subject for each 5-HTP administration.
Results: The human bioavailability of 5-HTP via the various routes of administration above was established in human subjects by administering 5-HTP through these various routes and quantifying the resultant 5-HTP plasma levels at various time points. […]

solubility [1]: > 10000 µg/mL
Rinput, release rate of 5-HTP needed for average steady-state plasma concentration of 1 mg/L (1000 ng/ml) ([3]; Scenario 1: F ~0.2 oral, Vd ~10 L, kel 0.462 h^−1, no peripheral decarboxylase inhibitor): ~25 mg/h
kel, elimination rate constant ([3]; calculated from plasma half-life of 1.5 hrs): 0.462 h⁻¹
bioavailability [5]: 4%
Compound: N[C@@H](Cc1c[nH]c2ccc(O)cc12)C(=O)O [5-HTP, 5-hydroxytryptophan]
increase of plasma 5-HTP levels by co-administration of a peripheral decarboxylase inhibitor [2]: one-fold to about fifteen-fold
absorption in the colon [4]: very effectively absorbed

Reference: patent US20210361566A1, “FORMULATIONS OF 5-HYDROXY TRYPTOPHAN (5-HTP) FOR BETTER BIOAVAILABILITY FOR VARIOUS INDICATIONS” (National University of Singapore, priority 2018, published 2021)
